Assay results reported in patent US7803766B2, “Gastrin compositions and formulations, and methods of use and preparation” (Warath Pharmaceuticals, Inc, priority 2002, dated 2010).
Where a SMILES comes first, the peptide text is derived from it. [ ]: non-standard residue; d: D form. pGlu = O=C1CC[C@@H](C(=O)O)N1

Tests used:
[1] = tested on: NOD mice with recent onset diabetes; test: Modified and unmodified gastrin in combination with GLP-1 in preventing diabetes progression in NOD mice with recent onset diabetes; assay type: in vivo; settings: 3 μg/kg/day gastrin equivalent with GLP-1 100 μg/kg/day i.p. daily for 14 days, compared to GLP-1 with native gastrin (Compound B)
Description: In this example, the effect of treatment by a combination of GLP-1 and unmodified gastrin and GLP-1 and modified gastrin compounds/conjugates were examined in NOD mice with recent onset diabetes, to determine whether administration of both GLP-1 and gastrin would prevent severe hyperglycemia as well as increase pancreatic insulin content in NOD mice with recent-onset diabetes. The GLP-1 used was GLP-1 which is the biologically active fragment of human/mouse GLP-1 (having residues at positions 7-36 compared to the precursor from which the fragment is processed; obtained from Bachem H6795). […]
Non-obese diabetic (NOD) female mice, ages 12-14 weeks, were monitored for development of onset of diabetes (fasting blood glucose >8.0 to 15 mmol/l), and within 48 hours after onset of symptoms, four groups of mice were each treated as follows: one group was treated with vehicle only, and the other group was administered 100 μg/kg/day of GLP-1, and the remaining groups were treated with combination of GLP-1 (100 μg/kg/day) and gastrin compound (3 μg/kg/day gastrin equivalent), each treatment administered via the intraperitoneal route daily.
Therapy was administered for 14 days. Animals were monitored weekly for fasting blood glucose (FBG) levels. FBG levels were measured at about 12 hours after food had been withdrawn, and 24 hours after the last peptide or vehicle injection. […]

[2] = in vivo; cited from earlier work
[3] = cynomolgus monkey, in vivo
Description: Male animals were used in the example. Each animal received gastrin by intravenous administration (3 μg/kg, 10 μg/kg and 30 μg/kg). The dosing solutions for intravenous injection were administered as a single bolus dose via the saphenous vein at a dose volume of 1 mL/kg. A 0.2 mL saline flush was administered following dosing in order to ensure administration of the complete dose volume. The actual volume administered to each animal was based on the animal's most recent body weight.
Serial blood samples (approximately 0.5 ml per time point) were collected via the brachial or femoral vein at the following time points: 0 (pre-dose), 1, 3, 5, 10, 15, 30 minutes, 1, 2, and 4 hours post dose.
Each sample was collected into a tube containing EDTA and kept on wet ice pending centrifugation. The samples were centrifuged under refrigeration for a minimum of 10 minutes at 1,500 g (RCF) and the resultant plasma was transferred into duplicate tubes and placed on dry ice. All samples were stored frozen for PK analysis as described below.
Gastrin in plasma samples was measured with a well established competitive radioimmunoassay for the quantitative determination of gastrin (Russell et al., Postgraduate Medical Journal 52:645, 1976). […] The antigen was labeled with ^125I and the presence of the antigen:antibody reactions were detected using a gamma counter. […]

Compound E: N-terminal Cys, gastrin residues 2-17 of SEQ ID NO: 4, no linker (GPWLEEEEEAYGWLDF; N-terminal Cys)
reduction of blood glucose levels [1]: more effecting in reducing blood glucose levels

Gastrin-17: Native peptide hormone gastrin, 17-residue form (little gastrin or small gastrin)
circulating half-life [2]: 5 to 9 min

CC(C)C[C@H](NC(=O)[C@H](Cc1c[nH]c2ccccc12)NC(=O)CNC(=O)[C@H](Cc1ccc(O)cc1)NC(=O)[C@H](C)NC(=O)[C@H](CCC(=O)O)NC(=O)[C@H](CCC(=O)O)NC(=O)[C@H](CCC(=O)O)NC(=O)[C@H](CCC(=O)O)NC(=O)[C@H](CCC(=O)O)NC(=O)[C@H](CC(C)C)NC(=O)[C@H](Cc1c[nH]c2ccccc12)NC(=O)[C@@H]1CCCN1C(=O)CNC(=O)[C@@H]1CCC(=O)N1)C(=O)N[C@@H](CC(=O)O)C(=O)N[C@@H](Cc1ccccc1)C(N)=O [Compound B] ([pGlu]GPWLEEEEEAYGWLDF-NH2)
clearance from the bloodstream [3]: rapidly cleared
